In US12036224B2, “Formulations, methods, kits, and dosage forms for treating atopic dermatitis and for improved stability of an active pharmaceutical ingredient” (Libertas Bio, Inc., priority 2017, dated 2024):
≈ marks a conversion by molar mass, not a printed value. Entries after “also recorded” stand apart in the source; their conditions may differ.

Key:
HCl stress study = format: physicochemical
From the text: (§1) Analytical studies for 2-(1-(4-((4-(4-hydroxypiperidin-1-yl)phenyl)amino)-5-oxo-5,6-dihydropyrimido[4,5-d]pyridazin-2-yl)piperidin-4-yl)acetonitrile are provided below in Tables 1-3: Table 1 provides the results of an HCl pH dependent solubility profile study, Table 2 provides the results of an HCl solubility profile in organic solvents, and Table 3 provides the results of an HCl stress study.

[1] = test system: patients with solid tumors and hematologic malignancies; assay: Phase 1/2 trial in solid tumors and hematologic malignancies: response and serum markers; format: in vivo, human
Protocol: (§2) Methods: Phase 1/2 clinical trial in patients with solid tumors and hematologic malignancies evaluates escalating oral doses of the formulation disclosed herein at 10, 20, 30, 40, 50, 75 and 100 mg BID and 80 and 120 mg QD mg (NCT02440685). Phase 1 allows patients with solid tumors or hematologic malignancies; Phase 2 allows only patients with diffuse large B-Cell lymphoma (DLBCL), follicular lymphoma (FL) or mantle cell lymphoma (MCL). Endpoints include safety, tolerability, pharmacokinetics, serum markers of inflammation, and response using RECIST or Lugano Classification System, […]

[2] = Phase 1/2 trial in solid tumors and hematologic malignancies: pharmacokinetics; format: in vivo, human
Protocol: as §2

[3] = HCl solubility profile in organic solvents; format: physicochemical; details: organic solvent or mixture
From the text: as §1

JAK = assay: Pre-clinical kinase inhibition, JAK; format: biochemical; details: pre-clinical studies
From the text: (§3) A formulation of the disclosure comprising 2-(1-(4-((4-(4-hydroxypiperidin-1-yl)phenyl)amino)-5-oxo-5,6-dihydropyrimido[4,5-d]pyridazin-2-yl)piperidin-4-yl)acetonitrile comprises a potent inhibitor of Spleen Tyrosine Kinase (SYK) and Janus Kinases (JAK).

[4] = test system: ibrutinib-resistant cell lines; assay: Pre-clinical proliferation in ibrutinib-resistant cell lines; format: cell-based
From the text: as §3

SYK = SYK (Homo sapiens, UniProt P43405); assay: Pre-clinical kinase inhibition, SYK; format: biochemical; details: pre-clinical studies
From the text: as §3

[5] = test system: lesional skin of subjects with atopic dermatitis; assay: Phase 1b study in atopic dermatitis: skin biopsy biomarkers; format: in vivo, human
From the text: Assessment of Pharmacodynamics/Biomarker Parameters: • 1. Change from baseline in inflammatory markers in serum (including immune markers and CRP) • 2. Change from baseline in molecular skin biomarkers (inflammatory and barrier) • 3. Change from baseline in cellular markers (including reduction in inflammatory cells) • 4. Change from baseline in epidermal thickness and barrier markers in skin biopsies. Assessments of Efficacy Investigator's Global Assessment
For each subject, a maximum of four skin biopsies were collected during this study. Two punch biopsy samples (one from lesional skin and one from non-lesional skin) were collected at Day 1 and one punch biopsy was collected from the same lesional skin (outside the scar of the previous biopsies) at Day 15 (optional for subjects) and Day 29.
A panel of biological markers were assessed to determine the effect of Compound 1 on the disease process. These may include, but are not limited to: • Serum cytokines and inflammatory markers • Molecular skin biomarkers (inflammatory and barrier) • Circulating and tissue resident cellular phenotyping • Epidermal thickness and barrier markers from skin biopsies • Other biomarkers related autoimmune or inflammatory diseases Results: […]

[6] = test system: IL-17-SYK mediated CCL20 release, human keratinocytes; assay: Inhibition of IL17 mediated CCL20 release in keratinocytes; format: cell-based; details: single donor, n=3
Protocol: In FIG. 12, each bar represents mean and SEM for 3 replicates (n=3) of a single donor. FIG. 13 is a graph showing average weekly change in pruritus (NRS) for a placebo, and Compound 1 in the doses of 20 mg, 40 mg and 80 mg.

[7] = HCl pH dependent solubility profile study; format: physicochemical; details: thermodynamic from solid
From the text: as §1

[8] = test system: rodent xenograft models of NHL and other hematologic malignancies; assay: Rodent xenograft models of NHL and other hematologic malignancies; format: in vivo
From the text: as §3

[9] = test system: patients with solid tumors and hematologic malignancies; assay: Phase 1/2 trial in solid tumors and hematologic malignancies: safety and tolerability; format: in vivo, human
Protocol: as §2

[10] = test system: JAK/STAT pathway in T cells (primary); assay: Inhibition of JAK/STAT pathway in T cells stimulated with various cytokines; format: cell-based; details: T cells (primary) stimulated by various cytokines
Protocol: FIG. 7A is a graph of the % of subjects to achieve EASI50 over time (Day 1 to Day 29) for a placebo and Compound 1 in the doses of 20 mg, 40 mg and 80 mg. FIG. 7B is a graph of the % of subjects to achieve EASI75 over time (Day 1 to Day 29) for a placebo and Compound 1 in the doses of 20 mg, 40 mg and 80 mg. […] FIG. 8A is a graph of the % CFB (percentage change from baseline) for EASI (decrease) for the placebo and Compound 1 in the doses of 20 mg, 40 mg and 80 mg. FIG. 8B is a graph of the % CFB for BSA (body surface area) (decrease) for the placebo and Compound 1 in the doses of 20 mg, 40 mg and 80 mg. FIG. 8C is a graph of the % CFB for IGA 0-1 (Investigator's Global Assessment) for the placebo and Compound 1 in the doses of 20 mg, 40 mg and 80 mg. FIG. 9 is a graph of day 15 plasma concentration for Compound 1 in the doses of 20 mg, 40 mg and 80 mg. […] In FIG. 10, the IC50 values were determined in biochemical kinase assays using purified partial or full length enzymes. FIG. 11 is a chart showing inhibition of Compound 1 in JAK/STAT pathway in T cells stimulated with various cytokines.

[11] = 10 mg-100 mg BID and 80-120 mg QD

## N#CCC1CCN(c2nc(Nc3ccc(N4CCC(O)CC4)cc3)c3c(=O)[nH]ncc3n2)CC1 [Compound 1, 2-(1-(4-((4-(4-hydroxypiperidin-1-yl)phenyl)amino)-5-oxo-5,6-dihydropyrimido[4,5-d]pyridazin-2-yl)piperidin-4-yl)acetonitrile]
HCl stress study; 1N HCl, rt, 24 hr
  % API based on Peak Area %: 100.00%
HCl stress study; 1N NaOH, rt, 24 hr
  % API based on Peak Area %: 99.54%
HCl stress study; 3% H2O2, rt, 30 hr
  % API based on Peak Area %: 83.00%
HCl stress study; 80° C., 24 hr
  % API based on Peak Area %: 99.93%
HCl stress study; UV, 23 hr
  % API based on Peak Area %: 99.80%
[1]; 3 months, a FL patient (Lugano, 6 prior lines)
  reduction in target lesions: About 50%
[1]; after 2 months (Lugano, 2 prior lines)
  response in a peripheral T-Cell lymphoma patient: stable disease and reduction of pruritus
[1]; all doses
  CRP, IL-18, MIP1β, VCAM-1, TNFR2 (serum markers of inflammation): Robust reduction
[1]; in vivo
  efficacy in NHL patients (in words): Encouraging preliminary evidence of efficacy
[2]; 80 mg QD
  systemic exposure (in words): High systemic exposure
[2]; human, in vivo, steady-state, 40 mg BID, oral
  half-life: 18 h
[2]; human, in vivo, steady-state, 40 mg BID, oral, read-out: AUC (0-12 h)
  AUC(0-t): 6.3 µM·h
[2]; steady-state, 40 mg BID, oral
  Cmax: 700 nM
[3]; EtOH
  solubility: 5000 µg/mL (≈ 10800 µM)
[3]; IPA
  solubility: 462 µg/mL (≈ 1000 µM)
[3]; MeOH
  solubility: 4440 µg/mL (≈ 9630 µM)
JAK
  IC50 against JAK: low nM
[4]
  proliferation: decreases proliferation
SYK
  IC50 against SYK: low nM
[5]; 40 and 80 mg, Day 29
  T cell (CD3+) infiltration into all layers of the skin: reduced
[5]; 40 and 80 mg, as early as Day 15
  Myeloid DC (CD11c+) infiltration into all layers of the skin: reduced
[5]; particularly in the mid and high dose
  cutaneous biomarkers (cellular infiltrates, immune and hyperplasia markers): improvements in epidermal hyperplasia and cellular infiltrates observed as early as Day 15; also recorded: down regulates inflammatory pathways; also recorded: reversal of cutaneous biomarkers of inflammation
[5]; skin biopsies, 20, 40 and 80 mg
  total skin thickness: Reductions in total skin thickness can be observed as early as Day 15
[6]
  inhibition of IL-17-SYK mediated CCL20 release: inhibits IL-17-SYK mediated CCL20 release, from human keratinocytes, at levels similar to IL17 neutralizing antibodies
[7]; aqueous buffer, pH 4.5 Acetate Buffer, initial pH 4.50, end pH 4.56
  solubility: 2.9 µg/mL (≈ 6.3 µM)
[7]; aqueous buffer, pH 5.5 Acetate Buffer, initial pH 5.52, end pH 5.12
  solubility: 1 µg/mL (≈ 2.17 µM)
[7]; aqueous buffer, pH 6.8 Phosphate Buffer, initial pH 6.80, end pH 6.86
  solubility: 2.7 µg/mL (≈ 5.86 µM)
[7]; aqueous buffer, pH 7.5 Phosphate Buffer, initial pH 7.55, end pH 6.96
  solubility: 0.7 µg/mL (≈ 1.52 µM)
[7]; simulated gastric fluid, 0.1N HCl, end pH 1.23
  solubility: 10800 µg/mL (≈ 23500 µM)
[7]; Water, end pH 2.62
  solubility: 941 µg/mL (≈ 2040 µM)
[8]
  tumor growth: suppresses tumor growth
[9]; [11]
  dose limiting adverse events: No dose limiting adverse events
  tolerability: safe and well tolerated
[9]; dose escalation continues
  MTD: has not been reached
[9]; e.g. headache, fatigue
  grade of most drug-related adverse events: Gr 1/2
[10]
  inhibition of JAK/STAT pathway: strong inhibition
